Assay results: ChEMBL document CHEMBL4507326, “Data for DCP probe TP-030-2” (2021); call rule not given here

What was measured:
[1] = target: Kappa-type opioid receptor (Homo sapiens) (UniProt P41145); conditions: Compound concentration 10.0 uM
[2] = target: voltage-gated sodium channel, site 2 (Rattus norvegicus, UniProt F1LQQ7+O08562+O88420+O88457+P04774+P04775+P08104+P15389+P15390+Q62968); assay: Inhibition of Sodium Channel, Site 2 at 10 µM in the Eurofins-Panlabs radioligand binding assay (Eurofins_assay_279510); format: protein assay; parameters: ligand concentration 5 nM, non-specific ligand with concentration 100 µM Veratridine, incubation time 60 min, incubation temperature 37 °C; conditions: male, Wistar, rat whole brain (except cerebellum) membranes, probe [3H] Batrachotoxinin, compound concentration 10 uM
[3] = target: Vascular endothelial growth factor receptor 3 (Homo sapiens, UniProt P35916); assay: FLT4(FLT4LGY1) Takeda global kinase panel
[4] = target: D(1A) dopamine receptor (Homo sapiens) (UniProt P21728); conditions: Compound concentration 10.0 uM
[5] = target: Serine/threonine-protein kinase PLK3 (Homo sapiens, UniProt Q9H4B4); assay: PLK3(PLK3PHY1) Takeda global kinase panel
[6] = target: Serine/threonine-protein kinase SBK1 (Homo sapiens, UniProt Q52WX2); assay: SBK(SBK1LGY1) Takeda global kinase panel
[7] = target: D(1B) dopamine receptor (Homo sapiens) (UniProt P21918); conditions: Compound concentration 10.0 uM
SRSF protein kinase 1 = SRSF protein kinase 1 (Homo sapiens, UniProt Q96SB4); assay: SRPK1(SRP1IHRL) Takeda global kinase panel
[8] = target: Receptor-type tyrosine-protein kinase FLT3 (Homo sapiens, UniProt P36888); assay: FLT3(FLT3MGE1) Takeda global kinase panel
[9] = target: Cyclin-dependent kinase 4 (Homo sapiens, UniProt P11802); assay: CDK4(CDK4CGS1) Takeda global kinase panel
[10] = target: BMP-2-inducible protein kinase (Homo sapiens, UniProt Q9NSY1); assay: BIKE(BM2KLGY1) Takeda global kinase panel
[11] = target: Maternal embryonic leucine zipper kinase (Homo sapiens, UniProt Q14680); assay: MELK(MELKLGF1) Takeda global kinase panel
[12] = target: Inhibitor of nuclear factor kappa-B kinase subunit beta (Homo sapiens, UniProt O14920); assay: IKKbeta(IKBBLHY1) Takeda global kinase panel
[13] = target: Cyclin-dependent kinase 11A (Homo sapiens, UniProt Q9UQ88); assay: CDK11A(C11ALGS1) Takeda global kinase panel
[14] = target: Protein kinase C delta type (Homo sapiens, UniProt Q05655); assay: PKCdelta(PRKDPFP1) Takeda global kinase panel
[15] = target: Glutamate NMDA receptor (Rattus norvegicus) (UniProt P35439+Q00959+Q00960+Q00961+Q62645+Q8VHN2+Q9R1M7); conditions: Compound concentration 10.0 uM
[16] = target: Microtubule-associated serine/threonine-protein kinase 4 (Homo sapiens, UniProt O15021); assay: MAST4(MAS4LGRD) Takeda global kinase panel
[17] = target: 5'-AMP-activated protein kinase catalytic subunit alpha-1 (Homo sapiens, UniProt Q13131); assay: AMPKalpha1(PRA1PGF1) Takeda global kinase panel
[18] = target: Delta-type opioid receptor (Homo sapiens) (UniProt P41143); conditions: Compound concentration 10.0 uM
[19] = target: Serine/threonine-protein kinase N1 (Homo sapiens, UniProt Q16512); assay: PKN1 [PRK1(PKN1LGY1)] Takeda global kinase panel
Ephrin type-A receptor 4 = Ephrin type-A receptor 4 (Homo sapiens, UniProt P54764); assay: EphA4(EPA4LGF1) Takeda global kinase panel
[20] = target: Estrogen receptor (Homo sapiens) (UniProt P03372); conditions: Compound concentration 10.0 uM
[21] = target: Alpha-2B adrenergic receptor (Homo sapiens, UniProt P18089); assay: GPCRScan assay: inhibition of Alpha2B; parameters: radioligand conc. used [nm] 1.5 – 2.0, parental cells HEKT
Myosin-IIIb = Myosin-IIIb (Homo sapiens, UniProt Q8WXR4); assay: MYO3B(MY3BLGA1) Takeda global kinase panel
[22] = target: Beta-2 adrenergic receptor (Homo sapiens) (UniProt P07550); conditions: Compound concentration 10.0 uM
[23] = target: Cyclin-dependent kinase 2 (Homo sapiens, UniProt P24941); assay: CDK2(CDK2CGS1) Takeda global kinase panel
[24] = target: Serine/threonine-protein kinase Nek11 (Homo sapiens, UniProt Q8NG66); assay: Nek11(NE11LGRI) Takeda global kinase panel
[25] = target: MAP kinase-activated protein kinase 5 (Homo sapiens, UniProt Q8IW41); assay: MAPKAPK5(MPK5LGN1) Takeda global kinase panel
[26] = target: Dual specificity mitogen-activated protein kinase kinase 6 (Homo sapiens, UniProt P52564); assay: MKK6 [MAP2K6(M2K6LGF1)] Takeda global kinase panel
[27] = target: Bromodomain-containing protein 4 (Homo sapiens, UniProt O60885); assay: BRD4(BRD4LGRC) Takeda global kinase panel
[28] = target: Dual specificity mitogen-activated protein kinase kinase 1 (Homo sapiens, UniProt Q02750); assay: MEK1 [MAP2K1(M2K1LGF1)] Takeda global kinase panel
[29] = target: D(4) dopamine receptor (Homo sapiens) (UniProt P21917); conditions: Compound concentration 10.0 uM
[30] = target: Serine/threonine-protein kinase VRK1 (Homo sapiens, UniProt Q99986); assay: VRK1(VRK1LGRI) Takeda global kinase panel
[31] = target: Glycogen synthase kinase-3 beta (Homo sapiens, UniProt P49841); assay: GSK3beta(GS3BLGM1) Takeda global kinase panel
Insulin receptor = Insulin receptor (Homo sapiens, UniProt P06213); assay: InSR(INSRLGY1) Takeda global kinase panel
[32] = target: RAC-beta serine/threonine-protein kinase (Homo sapiens, UniProt P31751); assay: Akt2 [PKBbeta(AKT2CGY1)] Takeda global kinase panel
[33] = target: cAMP-dependent protein kinase catalytic subunit beta (Homo sapiens, UniProt P22694); assay: PKAbeta(PRCBLGF1) Takeda global kinase panel
[34] = target: 5-hydroxytryptamine receptor 1A (Homo sapiens) (UniProt P08908); conditions: Compound concentration 10.0 uM
Homo sapiens = species on record: Homo sapiens; conditions: Compound concentration 10.0 uM
[35] = target: Tyrosine-protein kinase TXK (Homo sapiens, UniProt P42681); assay: TXK(TXK1CGD5) Takeda global kinase panel
[36] = target: Activin receptor type-1-like (Homo sapiens, UniProt P37023); assay: ALK1(ACL1LGF1) Takeda global kinase panel
[37] = target: cGMP-dependent protein kinase 2 (Homo sapiens, UniProt Q13237); assay: PKG2(PRG2LHY1) Takeda global kinase panel
Aurora kinase B = Aurora kinase B (Homo sapiens, UniProt Q96GD4); assay: AurB [Aur1(AURBPGE1)] Takeda global kinase panel
[38] = target: Rho-associated protein kinase 2 (Homo sapiens, UniProt O75116); assay: ROCK2(ROC2LGG1) Takeda global kinase panel

Sequence of Alpha-2B adrenergic receptor (P18089 whole entry): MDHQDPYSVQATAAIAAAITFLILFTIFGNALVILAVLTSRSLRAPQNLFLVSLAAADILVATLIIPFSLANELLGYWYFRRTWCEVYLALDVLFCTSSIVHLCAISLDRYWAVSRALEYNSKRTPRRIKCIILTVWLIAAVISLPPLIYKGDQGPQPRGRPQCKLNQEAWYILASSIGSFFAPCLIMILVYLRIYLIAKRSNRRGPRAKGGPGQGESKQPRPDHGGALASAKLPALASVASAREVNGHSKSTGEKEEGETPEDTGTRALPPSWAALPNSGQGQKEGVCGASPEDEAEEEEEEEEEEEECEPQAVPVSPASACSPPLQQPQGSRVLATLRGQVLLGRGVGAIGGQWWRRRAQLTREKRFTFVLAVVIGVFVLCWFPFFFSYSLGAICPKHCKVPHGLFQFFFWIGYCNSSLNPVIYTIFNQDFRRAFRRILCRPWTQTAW
Sequence of RAC-beta serine/threonine-protein kinase (P31751 whole entry): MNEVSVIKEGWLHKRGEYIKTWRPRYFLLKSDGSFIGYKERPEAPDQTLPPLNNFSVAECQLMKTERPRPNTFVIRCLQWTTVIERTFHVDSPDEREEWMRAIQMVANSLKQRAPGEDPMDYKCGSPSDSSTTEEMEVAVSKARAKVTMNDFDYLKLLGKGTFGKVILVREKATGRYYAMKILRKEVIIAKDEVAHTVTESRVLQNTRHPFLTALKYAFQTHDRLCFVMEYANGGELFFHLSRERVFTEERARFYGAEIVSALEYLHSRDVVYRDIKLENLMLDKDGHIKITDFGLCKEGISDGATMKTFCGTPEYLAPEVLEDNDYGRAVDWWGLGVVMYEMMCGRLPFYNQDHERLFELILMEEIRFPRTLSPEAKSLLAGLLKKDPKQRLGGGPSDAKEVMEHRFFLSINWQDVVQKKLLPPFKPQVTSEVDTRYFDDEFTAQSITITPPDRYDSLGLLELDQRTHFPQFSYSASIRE
Sequence of MAP kinase-activated protein kinase 5 (Q8IW41 whole entry): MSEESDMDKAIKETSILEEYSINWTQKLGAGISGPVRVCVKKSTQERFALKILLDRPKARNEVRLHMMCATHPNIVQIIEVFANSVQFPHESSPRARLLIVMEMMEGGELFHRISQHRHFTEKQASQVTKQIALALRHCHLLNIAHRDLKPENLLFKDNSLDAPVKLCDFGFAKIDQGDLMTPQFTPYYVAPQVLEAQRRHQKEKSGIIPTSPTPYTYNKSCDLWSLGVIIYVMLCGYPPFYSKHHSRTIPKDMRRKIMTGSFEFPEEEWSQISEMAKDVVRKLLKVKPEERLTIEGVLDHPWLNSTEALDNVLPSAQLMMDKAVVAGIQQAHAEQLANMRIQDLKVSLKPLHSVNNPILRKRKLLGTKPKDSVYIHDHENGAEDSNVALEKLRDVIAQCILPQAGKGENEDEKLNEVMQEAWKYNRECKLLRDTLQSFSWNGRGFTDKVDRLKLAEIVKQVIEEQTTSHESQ
Sequence of Serine/threonine-protein kinase SBK1 (Q52WX2 whole entry): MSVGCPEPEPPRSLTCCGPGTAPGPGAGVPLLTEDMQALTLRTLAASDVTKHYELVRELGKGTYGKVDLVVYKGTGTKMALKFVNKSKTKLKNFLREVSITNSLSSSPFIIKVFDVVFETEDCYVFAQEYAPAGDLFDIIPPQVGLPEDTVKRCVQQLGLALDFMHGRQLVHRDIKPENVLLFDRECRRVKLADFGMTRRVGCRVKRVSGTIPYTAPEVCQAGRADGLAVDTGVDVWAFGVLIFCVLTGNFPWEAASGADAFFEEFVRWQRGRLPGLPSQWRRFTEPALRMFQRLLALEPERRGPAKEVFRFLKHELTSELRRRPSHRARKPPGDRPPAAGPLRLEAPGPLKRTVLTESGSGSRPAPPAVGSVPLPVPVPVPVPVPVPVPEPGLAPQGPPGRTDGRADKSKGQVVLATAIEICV
Sequence of D(1B) dopamine receptor (Homo sapiens) (P21918 whole entry): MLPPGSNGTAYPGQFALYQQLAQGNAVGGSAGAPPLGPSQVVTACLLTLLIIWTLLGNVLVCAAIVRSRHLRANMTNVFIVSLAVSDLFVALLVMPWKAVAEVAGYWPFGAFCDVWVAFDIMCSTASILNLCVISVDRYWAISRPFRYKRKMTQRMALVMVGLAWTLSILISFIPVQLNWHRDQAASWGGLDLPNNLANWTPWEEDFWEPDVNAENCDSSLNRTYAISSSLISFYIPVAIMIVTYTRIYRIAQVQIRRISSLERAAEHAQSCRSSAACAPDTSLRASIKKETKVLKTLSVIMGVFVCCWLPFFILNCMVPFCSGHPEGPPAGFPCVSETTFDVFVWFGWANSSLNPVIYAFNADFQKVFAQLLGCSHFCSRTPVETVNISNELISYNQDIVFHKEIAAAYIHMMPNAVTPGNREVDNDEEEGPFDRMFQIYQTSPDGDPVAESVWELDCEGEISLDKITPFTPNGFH
Sequence of Serine/threonine-protein kinase Nek11 (Q8NG66 whole entry): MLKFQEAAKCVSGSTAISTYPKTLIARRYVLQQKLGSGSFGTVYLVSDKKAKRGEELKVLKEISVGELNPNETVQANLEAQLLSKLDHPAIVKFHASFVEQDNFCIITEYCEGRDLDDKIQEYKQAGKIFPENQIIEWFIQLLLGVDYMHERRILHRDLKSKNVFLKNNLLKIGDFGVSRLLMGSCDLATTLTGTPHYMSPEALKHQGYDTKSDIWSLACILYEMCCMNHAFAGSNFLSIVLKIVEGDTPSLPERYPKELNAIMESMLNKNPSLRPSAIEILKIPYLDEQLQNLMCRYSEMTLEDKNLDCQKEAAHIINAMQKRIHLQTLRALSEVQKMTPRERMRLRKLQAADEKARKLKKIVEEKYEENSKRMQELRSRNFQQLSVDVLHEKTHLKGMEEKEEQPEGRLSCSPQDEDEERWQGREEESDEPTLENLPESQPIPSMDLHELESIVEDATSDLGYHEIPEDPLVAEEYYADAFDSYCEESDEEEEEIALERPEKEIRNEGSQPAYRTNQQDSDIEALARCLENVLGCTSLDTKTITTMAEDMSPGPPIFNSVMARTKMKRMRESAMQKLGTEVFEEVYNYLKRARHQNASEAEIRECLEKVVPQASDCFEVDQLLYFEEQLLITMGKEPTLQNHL
Sequence of Serine/threonine-protein kinase PLK3 (Q9H4B4 whole entry): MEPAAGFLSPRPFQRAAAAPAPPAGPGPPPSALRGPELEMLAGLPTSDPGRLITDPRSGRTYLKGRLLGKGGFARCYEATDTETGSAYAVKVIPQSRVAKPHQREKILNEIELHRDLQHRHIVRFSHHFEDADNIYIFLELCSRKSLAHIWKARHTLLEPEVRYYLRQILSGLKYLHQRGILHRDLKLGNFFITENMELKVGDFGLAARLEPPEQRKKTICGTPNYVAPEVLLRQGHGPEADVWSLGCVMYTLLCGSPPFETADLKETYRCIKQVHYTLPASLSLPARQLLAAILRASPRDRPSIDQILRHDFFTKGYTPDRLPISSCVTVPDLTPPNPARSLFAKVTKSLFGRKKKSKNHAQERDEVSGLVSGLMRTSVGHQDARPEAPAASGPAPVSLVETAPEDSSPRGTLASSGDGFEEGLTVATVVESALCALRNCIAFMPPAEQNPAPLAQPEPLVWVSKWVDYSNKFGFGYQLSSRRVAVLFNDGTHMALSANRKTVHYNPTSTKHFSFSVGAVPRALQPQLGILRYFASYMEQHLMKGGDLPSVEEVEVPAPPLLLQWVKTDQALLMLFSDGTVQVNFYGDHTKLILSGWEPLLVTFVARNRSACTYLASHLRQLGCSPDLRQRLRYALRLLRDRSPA
Sequence of SRSF protein kinase 1 (Q96SB4 whole entry): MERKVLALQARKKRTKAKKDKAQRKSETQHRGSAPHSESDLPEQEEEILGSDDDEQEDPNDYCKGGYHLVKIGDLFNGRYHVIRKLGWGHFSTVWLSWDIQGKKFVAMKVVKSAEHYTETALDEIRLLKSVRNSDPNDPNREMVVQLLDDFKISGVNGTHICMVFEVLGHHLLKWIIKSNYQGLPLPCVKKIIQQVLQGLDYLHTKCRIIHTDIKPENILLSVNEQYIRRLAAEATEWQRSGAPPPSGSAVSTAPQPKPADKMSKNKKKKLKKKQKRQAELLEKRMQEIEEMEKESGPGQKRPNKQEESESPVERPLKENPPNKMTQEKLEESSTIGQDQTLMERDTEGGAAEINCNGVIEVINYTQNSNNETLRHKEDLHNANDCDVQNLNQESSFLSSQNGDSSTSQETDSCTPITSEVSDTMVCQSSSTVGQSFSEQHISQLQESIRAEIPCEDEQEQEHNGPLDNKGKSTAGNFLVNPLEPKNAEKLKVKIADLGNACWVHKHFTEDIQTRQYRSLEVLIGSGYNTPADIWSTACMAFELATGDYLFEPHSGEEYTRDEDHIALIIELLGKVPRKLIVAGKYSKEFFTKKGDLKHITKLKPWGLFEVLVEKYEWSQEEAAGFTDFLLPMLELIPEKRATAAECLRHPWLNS
Sequence of Tyrosine-protein kinase TXK (P42681 whole entry): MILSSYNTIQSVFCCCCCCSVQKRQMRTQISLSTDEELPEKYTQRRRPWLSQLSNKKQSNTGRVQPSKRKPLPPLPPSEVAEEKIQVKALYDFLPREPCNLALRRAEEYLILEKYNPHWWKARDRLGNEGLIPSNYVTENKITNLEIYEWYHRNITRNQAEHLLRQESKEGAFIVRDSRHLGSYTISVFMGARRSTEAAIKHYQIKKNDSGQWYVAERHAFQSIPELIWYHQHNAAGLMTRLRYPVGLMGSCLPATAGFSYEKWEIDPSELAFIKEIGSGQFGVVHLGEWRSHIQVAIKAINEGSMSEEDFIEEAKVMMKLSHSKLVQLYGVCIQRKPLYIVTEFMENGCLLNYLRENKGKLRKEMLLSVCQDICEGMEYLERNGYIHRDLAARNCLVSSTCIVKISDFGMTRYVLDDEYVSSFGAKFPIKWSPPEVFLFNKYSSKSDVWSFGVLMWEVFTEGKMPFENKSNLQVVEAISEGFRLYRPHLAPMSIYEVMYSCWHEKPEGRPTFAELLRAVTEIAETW

CN1C(=O)[C@@H](N2CCc3c(nn(Cc4ccccc4)c3Br)C2=O)COc2ccccc21 [TP-030-2]
inhibition [1]: 16.5%
inhibition at 60 min, 10 µM [2]: 42% (not active)
IC50 [3]: 1000 nM
inhibition [4]: 9%
IC50 [5]: 1000 nM
IC50 [6]: 1000 nM
inhibition [7]: 41.7%
IC50 (SRSF protein kinase 1): 1000 nM
IC50 [8]: 1000 nM
IC50 [9]: 1000 nM
IC50 [10]: 1000 nM
IC50 [11]: 1000 nM
IC50 [12]: 1000 nM
IC50 [13]: 1000 nM
IC50 [14]: 1000 nM
inhibition [15]: 6%
IC50 [16]: 1000 nM
IC50 [17]: 1000 nM
inhibition [18]: 8%
IC50 [19]: 1000 nM
IC50 (Ephrin type-A receptor 4): 1000 nM
inhibition [20]: 10%
Ki ([21]; read-out: Ki): 2870 nM
Ki ([21]; read-out: pKi (converted)): 2820 nM
IC50 (Myosin-IIIb): 1000 nM
inhibition [22]: 11.2%
IC50 [23]: 1000 nM
IC50 [24]: 1000 nM
IC50 [25]: 1000 nM
IC50 [26]: 1000 nM
IC50 [27]: 1000 nM
IC50 [28]: 1000 nM
inhibition [29]: 8.9%
IC50 [30]: 1000 nM
IC50 [31]: 1000 nM
IC50 (Insulin receptor): 1000 nM
IC50 [32]: 1000 nM
IC50 [33]: 1000 nM
inhibition [34]: 16.9%
inhibition (Homo sapiens): 16%
IC50 [35]: 1000 nM
IC50 [36]: 1000 nM
IC50 [37]: 1000 nM
IC50 (Aurora kinase B): 1000 nM
IC50 [38]: 1000 nM
